Assay results taken from PubChem BioAssay (NCI).
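Method: 48-hour compound exposure of cells in 96-well plates, five concentrations, linear interpolation of endpoints. The concentration for 50% growth inhibition is given as GI50. TGI: concentration producing complete growth inhibition.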

Experiments:
Test in all cases: NCI tumour cell line growth inhibition, 48 h
[1] = test system: SN12C renal
[2] = test system: OVCAR-3 ovarian
[3] = test system: SK-MEL-28 melanoma
[4] = test system: ACHN renal
[5] = test system: HCT-15 colon
[6] = test system: MALME-3M melanoma
[7] = test system: RPMI-8226 leukemia
[8] = test system: LOX IMVI melanoma
[9] = test system: SR leukemia
[10] = test system: HL-60(TB) leukemia

Structure (SMILES) | GI50 [1] [µM] | TGI [1] [µM] | GI50 [2] [µM] | TGI [2] [µM] | GI50 [3] [µM] | TGI [3] [µM] | GI50 [4] [µM] | TGI [4] [µM] | GI50 [5] [µM] | TGI [5] [µM] | GI50 [6] [µM] | TGI [6] [µM] | GI50 [7] [µM] | TGI [7] [µM] | GI50 [8] [µM] | TGI [8] [µM] | TGI [9] [µM] | TGI [10] [µM] | GI50 [9] [µM] | GI50 [10] [µM]
Cn1cc(-c2cnc3ccc(NC(=O)Nc4ccc(F)c(Br)c4)cc3n2)cn1 | 1.87 | 4.79 | 2 | 5.77 | 1.9 | 3.76 | 1.81 | 4.31 | 1.92 | 4.45 | 1.56 | 3.55 | 1.25 | 3.82 | 1.51 | 2.9 |  |  |  | 
O=C(O)Cn1ccc(=O)c2ccc([N+](=O)[O-])cc21 |  | > 100 |  | > 100 |  | > 100 |  | > 100 |  | > 100 |  | > 100 |  |  |  |  | > 100 | > 100 |  | 
O=C1NNC=Nc2ccc(cc2)S(=O)(=O)c2ccc(cc2)N=CNNC1=O |  | > 100 |  | > 100 |  | > 100 |  | > 100 |  | > 100 |  |  |  |  |  | > 100 |  | > 100 |  | 
CN(C(=O)C12C3C4C1C1C2C3C41C(=O)C(C)(C)C)C(C)(C)C (stereo not drawn) |  | > 100 |  | > 100 |  | > 100 |  | > 100 |  |  |  | > 100 |  | > 100 |  | > 100 |  | > 100 |  | 
N#CC(C(=N/O)/C(=N/O)C(C#N)c1ccc(Cl)cc1)c1ccc(Cl)cc1 (stereo not drawn) |  | > 100 |  | > 100 |  | > 100 |  | > 100 |  | > 100 |  | > 100 |  | > 100 |  | > 100 |  |  |  | 
CCCCNC1=C(C(=O)OCC)C(=O)CO1 |  | > 100 |  | > 100 |  | > 100 |  | > 100 |  | > 100 |  | > 100 |  | > 100 |  | > 100 |  | > 100 |  | 
CC1(Cl)C(=O)NC(=O)N(C2CC(N=[N+]=[N-])C(CO)O2)C1N=[N+]=[N-] (stereo not drawn) |  | > 100 |  | > 100 |  | > 100 |  | > 100 |  | > 100 |  | > 100 |  | > 100 |  | > 100 |  | > 100 |  | 
COC(=O)C1=C(C(=O)OC)C2C=CC1C1C(Cl)=C(Cl)C21 (stereo not drawn) |  | > 100 |  | > 100 |  | > 100 |  | > 100 |  | > 100 |  | > 100 |  | > 100 |  | > 100 |  |  |  | 
CCc1c(Oc2ccc(C(C)=O)cc2)c2ccccc2[nH]c1=O | 16.6 | 61.8 | 26 | 80.9 | 50.7 | > 100 | 16.7 | 63.5 | 16.4 | 96.8 | 9.09 | 42.3 | 3.65 | > 42.5 | 17.3 | 46.2 | > 100 |  | 9.09 | 
N#Cc1ccc(C#Cc2ccccc2C#CCCCCO)cc1 | 17.7 | 31.8 | 19.9 | 39.6 | 25.6 | 53.7 | 19.1 | 33.2 | 15.6 | 29 | 21 | 38.7 | 20.6 | 44.1 | 18.3 | 32.5 |  | 45.6 |  | 23.7
CCCCCCCCCC[C@@H](O)[C@@H]1CC[C@H]([C@H]2CC[C@@H]([C@@H](O)CCCCCCCCCC[C@H]3CC(CC(C)=O)C(=O)O3)O2)O1 (stereo partly drawn) |  | 49.1 |  | 17.8 |  | 24.4 |  |  |  | 34 |  | 19.1 |  | 15.4 |  | 36 |  | 2.29 |  | 
CC12CC[C@@H](C(C)(C)O)C1[C@@H](O)CC1(C)C2CCC2[C@@]3(C)CC[C@H](O)C(C)(C)C3C(O)C[C@]21C (stereo partly drawn) |  | 29.9 |  | 35.3 |  | 40.2 |  | 29.1 |  | 29.4 |  | 32.1 |  | > 100 |  |  |  | 24.9 |  | 
O=[N+]([O-])/C=C\c1ccc(Cl)c(Cl)c1 | 4.31 | 62.5 | 1.96 | 3.94 | 2.48 | 6.54 | 3.47 | 13.3 | 3.23 | 17 | 1.46 | 6.05 | 0.249 | 0.624 | 0.412 | 1.73 |  | 10.5 |  | 2.15
CCOc1ccc2c(c1)[n+]([O-])c(S(=O)(=O)c1ccc(C)cc1)c(N)[n+]2[O-] |  |  |  | > 100 |  | > 100 |  | > 100 |  |  |  | > 100 |  | > 100 |  |  |  | > 100 |  | 
COc1cc2c3c(n(C)c(=O)c2cc1OC)-c1cc2c(cc1/C3=C\CCCN1C(=O)c3ccccc3C1=O)OCO2 |  |  | > 40 | > 40 | > 40 | > 40 | 8.67 | > 40 | > 40 | > 40 | > 40 | > 40 |  |  | 20.8 | > 40 |  |  |  | 
Cc1ccc(C)c(NC(=O)CC/C(=N\NC(=O)C(=O)NN)C(C)C(=O)c2ccc(O)cc2)c1 (stereo not drawn) |  | > 100 |  | > 100 |  | > 100 |  | > 100 |  | > 100 |  | > 100 |  | > 100 |  | > 100 | > 100 |  |  | 
COC(=O)CC(C(C(=O)OC)C(=O)OC)N1C(=O)OCC1c1ccccc1 (stereo not drawn) |  | > 100 |  | > 100 |  | > 100 |  | > 100 |  | > 100 |  | > 100 |  | > 100 |  | > 100 |  | > 100 |  | 
CC1=C(C(=O)Nc2ccc([N+](=O)[O-])cc2)C(c2ccc(N(C)C)cc2)C(C(=O)Nc2ccc([N+](=O)[O-])cc2)=C(C)N1 |  |  |  | 34.5 |  | 28.2 |  | 43.6 |  |  |  | 52.6 |  | 43.2 |  | 23.5 |  | 38.7 |  | 
CC(=O)Nc1ccccc1Sc1ccccc1 |  | > 100 |  | > 100 |  | > 100 |  | > 100 |  | > 100 |  | > 100 |  | > 100 |  | > 100 |  | > 100 |  | 
Cc1ccc(-c2c3c([nH]c(=O)c2C#N)-c2cc(F)ccc2OC3)cc1 | > 100 | > 100 | 25.4 | 81.9 | > 100 | > 100 | > 100 | > 100 | 91 | > 100 |  |  | 28.3 | > 100 | > 100 | > 100 | > 100 | > 100 | > 100 | 96.6
